Test results published in patent publication US11351178B2, “Selective HDAC6 inhibitors” (ITALFARMACO S.P.A., priority 2017, dated 2022).
Like-named read-outs stand apart in the source and are kept apart here.

Experiments:
Format in all cases: cell-based
human PBMCs = assay: Mixed Lymphocytes Reaction (MLR) with human PBMCs (IFN-γ, TNF-α, IL-6); conditions: PBMC, 144 h, two-way MLR, 6 days, 1 μM, negative = induction
Experimental: In order to study HDAC6 inhibitors ability to inhibit the activation of allogenic T CD4+ cells, a Mixed Lymphocytes Reaction (MLR or mixed lymphocyte culture, CLM) assay was performed. This is a reaction involving blast transformation of in vitro cultured lymphocytes in the presence of allogeneic lymphocytes. There is the so-called “two-way” reaction wherein the two lymphocyte populations stimulate each other to proliferate, and the so-called “one way” reaction, wherein the proliferation of one of the two populations is inhibited by mitomycin C or irradiation, these cells provide proliferation stimulus (stimulator) to the so-called “responder” cells.
Human peripheral blood mononuclear cells (PBMCs) used in MLR were obtained by Ficoll gradient separation from Buffy Coat of healthy donors.
We used a two-way MLR. The cells from the two donors were plated at 1:1 ratio (allogenic stimulation) to the final concentration of 2×10^5 per well in U-bottom 96 well plates in RPMI 1640 medium with 10% FBS and antibiotics. As a control we individually plated the cells from each donor (singenic stimulus). The experiment for each inhibitor was set in deduplicate for allogeneic stimuli and in quintuplicate for singenic stimuli. The cells were cultured for 6 days in an incubator at 37° C.
After 6 days the effect of the test compounds was evaluated by measuring the production of pro-inflammatory cytokines recognized to be characteristics of this assay.
For this purpose, the culture supernatant was harvested and used for IFN-γ, TNF-α and IL-6 inflammatory cytokine assay.
The JAK inhibitor ruxolitinib was used as the active reference compound in the test.
Values in the table indicate the inhibition percentages. Negative values indicate an induction.

[1] = system: α-tubulin acetylation in 697 cell line; assay: In vitro α-tubulin acetylation in 697 cell line; conditions: 16 hours, read-out: Tubulin acetylation (ratio of acetylated tubulin and total tubulin towards control); for fold induction at 0.037 µM: Conc 37 nM; for fold induction at 0.111 µM: Conc 111 nM; for fold induction at 0.333 µM: Conc 333 nM; for fold induction at 1 µM: Conc 1000 nM
Experimental: (§1) The in vitro α-tubulin and H3 histone acetylation determination was evaluated on B 697 […] cell line.
(§2) The test molecules were diluted from 20 mM stock solution in DMSO with RPMI 10% FCS+0.01% DMSO medium at 20× concentration compared to the final concentration, added to the cells (15×10^6 cells in a total volume of 30 ml in RPMI medium 10% FCS+0.01% DMSO) to obtain the final concentrations of 1000, 333, 111 and 37 nM and incubated at 37° C., 5% CO2 for 16 hours.
At the end of the incubation period, 5×10^6 cells were taken from each sample, centrifuged for 5 minutes at 1100 rpm and washed in 0.9% NaCl at 4° C. The resulting pellet was lysed by treating at 4° C. for 30 minutes with 150 μl of Complete Lysis-M (Roche, cat-04719956051) containing protease inhibitors and phosphatase (Complete Easy Pack proteinase inhibitor cocktail tablets cat: 04693116001, Phostop easypack phosphatase inhibitor cocktails, cat: 01906837001—Roche), then centrifuged 10 minutes at 14,000 rpm (20817×g). 0.150 μg of supernatant (total protein extract) were diluted in 100 μl of 1×PBS and immobilized in Maxisorp F96 NUN-IMMUNO Plate (Nunc cat #5442404) at room temperature overnight. Plates were washed twice with Wash Buffer (PBS1X+0.005% tween 20) and saturated for 1 hour at room temperature with 300 μL of 1×PBS containing 10 FCS. After washing with buffer (1×PBS containing 0.005% tween), the plates were incubated for two hours at room temperature in the presence of anti-acetylated-α-tubulin antibody (Monoclonal Anti-acetylated-tubulin clone 6-11B-1, mouse ascites fluid, cat #T6793 Sigma, 100 μl diluted 1:1000 in 1×PBS containing 10% FCS) or with total anti-α-tubulin antibody (Monoclonal Anti alpha-tubulin produced in mouse, cat #T6074 Sigma). After washing, 100 μl per well of TMB substrate kit was added for 10 minutes at room temperature in the dark. The reaction was stopped by adding 50 μl of 2N H2SO4. The plates were read at Multiskan Spectrum spectrophotometer at a wavelength of 450 nm.
The degree of acetylation was calculated by dividing the absorbance obtained for acetylated α-tubulin by the absorbance of total α-tubulin.
(§3) Test results of tubulin and H3 histone acetylation, expressed as fold increase of ratio of acetylated α-tubulin/total α-tubulin and H3Ac/H3Tot, respectively, of each sample relative to the control sample (untreated) are summarized in Tables 6 and 6′.

[2] = system: H3 histone acetylation in 697 cell line; assay: In vitro H3 histone acetylation in 697 cell line; conditions: 16 h, read-out: Acetylation of H3 histone (fold increase of acetylated H3/total H3 towards control); for fold induction at 0.111 µM: conc 111 nM; for fold induction at 0.333 µM: conc 333 nM; for fold induction at 1 µM: conc 1000 nM
Experimental: as §1, §2
The remaining cells (10×10^6) were treated by acid extraction of histones (Kazuhiro et al., PNAS (2002), 99 (13) 8921-8926). Cells were centrifuged 5 min at 1100 rpm at 4° C. and washed once in 0.9% NaCl. The resulting pellet was lysed with […] (10 mM Tris.HCl, pH 6.5/50 mM sodium bisulphite, 1% Triton X-100/10 mM MgCl2/8.6% saccharose containing the protease inhibitor mixture (Roche)) for 20 min at 4° C. The resulting nucleus pellet was repeatedly washed in buffer until supernatant clarification (centrifuged at 7,500×g, 5 minutes after each wash) and finally washed in nucleus buffer (10 mM Tris.HCl/13 mm EDTA, pH 7, 4) and resuspended in 250 μl of 0.2 M HCl/H2SO4. Histone proteins were extracted in an acidic environment by incubating overnight at 4° C. under gentle shaking. After centrifugation at 14,000 rpm at 4° C. for 10 minutes, 1250 μl of cold acetone was added to the supernatant and incubated overnight at −20° C., resulting in the precipitation of histone proteins. The pellet obtained after centrifugation for 10 minutes at 14000 rpm and 4° C. was washed with cold acetone, evaporated to dryness and resuspended in 50 μl distilled water. The protein content determination of both total and histone extracts was carried out by a colorimetric assay using a BCA Protein Assay Kit (Pierce cat: 23227).
H3 histone acetylation and total H3 amount were quantified by commercial ELISA assays PathScan acetylated histone H3 Sandwich Elisa kit, cat #7232C and PathScan total histone H3 Sandwich Elisa Kit, cat #7253C Cell Signaling) according to supplier reported method and by detecting absorbance at 450 nm wavelength using Multiskan Spectrum. ELISA tests were performed by analysing 0.250 μg and 0.500 μg of histone extract of each sample. The degree of acetylation was calculated by dividing H3 histone absorbance by histone total absorbance.
as §3

[3] = read-out: MLR IFN-γ inhibition percentage
[4] = read-out: MLR IL-6 inhibition percentage
[5] = read-out: MLR TNF-α inhibition percentage

Compound	inhibition at 1 µM (human PBMCs; [3]) [%]	inhibition at 1 µM (human PBMCs; [4]) [%]	inhibition at 1 µM (human PBMCs; [5]) [%]	fold induction at 0.037 µM [1]	fold induction at 0.111 µM [1]	fold induction at 0.333 µM [1]	fold induction at 1 µM [1]	fold induction at 0.111 µM [2]	fold induction at 0.333 µM [2]	fold induction at 1 µM [2]
O=C(NO)c1cc(F)c(Cn2nnc(-c3ccccn3)n2)c(F)c1 [comp. 6, 3,5-difluoro-N-hydroxy-4-((5-(pyridin-2-yl)-2H-tetrazol-2-yl)methyl)benzamide]	-6.5	15.5	13.5							
O=C(NO)c1cc(F)c(Cn2nnnc2-c2ccccn2)c(F)c1 [comp. 13, 3,5-difluoro-N-hydroxy-4-((5-(pyridin-2-yl)-1H-tetrazol-1-yl)methyl)benzamide]	-10.9	38.3	37.2							
CCN(CC)S(=O)(=O)c1cccc(-c2nnc(Sc3ccc(C(=O)NO)cc3)n2N)c1 [comp. 61, 4-[[4-amino-5-[3-(diethylsulfamoyl)phenyl]-1,2,4-triazol-3-yl]sulfanyl]benzenecarbohydroxamic acid]	16	-21								
O=C(NO)c1cc(F)c(Cn2nnc(-c3cccs3)n2)c(F)c1 [comp. 65, 3,5-difluoro-4-[[5-(2-thienyl)tetrazol-2-yl]methyl]benzenecarbohydroxamic acid]	45	5.4	67.3							
CCN(CC)S(=O)(=O)c1cccc(-c2nnc(Sc3ccc(C(=O)NO)cc3)n2C)c1 [comp. 66, 4-[[5-[3-(diethylsulfamoyl)phenyl]-4-methyl-1,2,4-triazol-3-yl]sulfanyl]benzenecarbohydroxamic acid]	53	12.9	42.8							
CN(C)c1cccc(-c2nnc(Sc3ccc(C(=O)NO)cc3)n2C)c1 [comp. 77, 4-[[5-[3-(dimethylamino)phenyl]-4-methyl-1,2,4-triazol-3-yl]sulfanyl]benzenecarbohydroxamic acid]	32.1	34.3	64.2							
O=C(NO)c1cc(F)c(Cn2nnc(-c3scc4c3OCCO4)n2)c(F)c1 [comp. 79, 4-[[5-(2,3-dihydrothieno[3,4-b][1,4]dioxin-5-yl)tetrazol-2-yl]methyl]-3,5-difluoro-benzenecarbohydroxamic acid]	27.5	38.6	50.9							
Cc1cc(-c2nnc(Sc3ccc(C(=O)NO)cc3)n2C)nn1C [comp. 85, 4-[[5-(1,5-dimethylpyrazol-3-yl)-4-methyl-1,2,4-triazol-3-yl]sulfanyl]benzenecarbohydroxamic acid]	51.8	66.9	73.8							
O=C(NO)c1cc(F)c(Cn2nnnc2-c2ncccn2)c(F)c1 [comp. 125, 3,5-difluoro-4-[(5-pyrimidin-2-yltetrazol-1-yl)methyl]benzenecarbohydroxamic acid]				1	3	6	14	1	1	1
Cn1c(Sc2c(F)cc(C(=O)NO)cc2F)nnc1-c1cccc(CN2CCCCCC2)c1 [comp. 167, 4-[[5-[3-(azepan-1-ylmethyl)phenyl]-4-methyl-1,2,4-triazol-3-yl]sulfanyl]-3,5-difluoro-benzenecarbohydroxamic acid]				2	3	9	13	1	1	2
Cn1c(Sc2c(F)cc(C(=O)NO)cc2F)nnc1-c1ccc(CN2CCCCCC2)cc1 [comp. 168, 4-[[5-[4-(azepan-1-ylmethyl)phenyl]-4-methyl-1,2,4-triazol-3-yl]sulfanyl]-3,5-difluoro-benzenecarbohydroxamic acid]				3	11	19	16	1	1	2
Nc1ccc(-c2nnn(Cc3c(F)cc(C(=O)NO)cc3F)n2)cc1 [comp. 171, 4-[[5-(4-aminophenyl)tetrazol-2-yl]methyl]-3,5-difluoro-benzenecarbohydroxamic acid]				10	19	20	22			3
Cn1c(Sc2c(F)cc(C(=O)NO)cc2F)nnc1-c1cccnn1 [comp. 179, 3,5-difluoro-4-[(4-methyl-5-pyridazin-3-yl-1,2,4-triazol-3-yl)sulfanyl]benzenecarbohydroxamic acid]				2	7	6	14			1
Cn1c(Sc2c(F)cc(C(=O)NO)cc2F)nnc1-c1ncccc1F [comp. 180, 3,5-difluoro-4-[[5-(3-fluoro-2-pyridyl)-4-methyl-1,2,4-triazol-3-yl]sulfanyl]benzenecarbohydroxamic acid]				2	7	15	19			1
